Experimental findings from PubChem BioAssay (NCI) are described below.

Each structure is given as a SMILES string.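 Five compound concentrations were applied to cells in 96-well plates for 48 hours; endpoints were derived by simple linear interpolation of the resulting dose-response curve. Abbreviation: GI50, concentration required for 50% inhibition of growth. TGI: concentration producing complete growth inhibition.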

Some test systems named below: 786-0 renal; IGROV1 ovarian; K-562 leukemia; LOX IMVI melanoma; M14 melanoma; NCI-H460 lung; SF-268 CNS; SF-295 CNS; SN12C renal; MCF7 breast.
What all share (assay): NCI-60 cell line screen, 48 h

In the case of `ClCc1ccccc1Cn1cnc2nc(Cl)nc(Cl)c21`, the GI50 in the experiment on 786-0 renal was 0.19 µM; in the experiment with IGROV1 ovarian it was 1.78 µM; in the experiment on K-562 leukemia, 0.239 µM; in the experiment with LOX IMVI melanoma, 0.137 µM; in the experiment with M14 melanoma it was 0.851 µM; in the experiment with NCI-H460 lung, 2.09 µM. Moreover, the GI50 was 0.379 µM in the experiment on SF-268 CNS, 9.28 µM in the experiment with SF-295 CNS and 1.17 µM in the experiment with SN12C renal. Also, the TGI was 1.08 µM in the experiment on 786-0 renal; 3.47 µM in the experiment on IGROV1 ovarian; 2.95 µM in the experiment on K-562 leukemia; 0.301 µM in the experiment on LOX IMVI melanoma; 2.46 µM in the experiment with M14 melanoma; more than 24.3 µM in the experiment with NCI-H460 lung. For the same compound, the TGI in the experiment on SF-268 CNS is more than 49.4 µM; in the experiment with SF-295 CNS, 32.3 µM; in the experiment with SN12C renal, 2.56 µM.
As to `O=CN/C=C/c1ccccc1`, the TGI was more than 100 µM in the experiment with 786-0 renal; more than 100 µM in the experiment on IGROV1 ovarian; more than 31.6 µM with K-562 leukemia; more than 100 µM in the experiment on LOX IMVI melanoma; more than 100 µM with M14 melanoma; more than 100 µM in the experiment with NCI-H460 lung. The TGI with SF-268 CNS, with SF-295 CNS and in the experiment with SN12C renal was more than 100 µM each time.
As to `C[C@]12Cc3conc3C(O)=C1CC[C@@H]1C2CC[C@@]2(C)C1CC[C@@H]2O` (stereo partly specified), the TGI with 786-0 renal was more than 100 µM; in the experiment with IGROV1 ovarian it was more than 100 µM; in the experiment on K-562 leukemia it was more than 100 µM; in the experiment with LOX IMVI melanoma, 24.9 µM; in the experiment with M14 melanoma, 50 µM; in the experiment on NCI-H460 lung, 40.7 µM. Also, the TGI with SF-268 CNS was 73.1 µM; in the experiment on SF-295 CNS it was 88.3 µM; in the experiment with SN12C renal, more than 100 µM.
For the compound `CCCCCCCCCCCCCCCCc1c(C(=O)OC)nc(NC#N)[nH]c1=O`, the TGI with 786-0 renal, in the experiment on K-562 leukemia, in the experiment on LOX IMVI melanoma, in the experiment on M14 melanoma, in the experiment on NCI-H460 lung and in the experiment with SF-268 CNS was more than 25 µM in each case. Also, the TGI with SF-295 CNS and in the experiment with SN12C renal was more than 25 µM each time.
As to `COC(=O)/C=C1\CCC2[C@@H](C(=O)CC3[C@]2(C)CCC[C@@]3(C)C(=O)OC)C1C` (stereo partly specified), the TGI in the experiment with 786-0 renal was more than 100 µM; in the experiment on IGROV1 ovarian, 57 µM; in the experiment on K-562 leukemia it was 41.3 µM; in the experiment on M14 melanoma, 34.2 µM; with NCI-H460 lung, 32.9 µM; in the experiment with SF-268 CNS, 52.1 µM. Besides, the TGI with SF-295 CNS is 71.8 µM; in the experiment on SN12C renal, 70.8 µM.
For the compound `CCOC(=O)C1CC(=O)C=C2CCCCC21` (stereo unspecified), the TGI in the experiment on 786-0 renal, in the experiment on IGROV1 ovarian, in the experiment with K-562 leukemia, in the experiment on LOX IMVI melanoma, in the experiment with M14 melanoma and in the experiment on NCI-H460 lung was more than 100 µM in each case. Moreover, the TGI in the experiment on SF-268 CNS, with SF-295 CNS and in the experiment on SN12C renal was more than 100 µM throughout.
In the case of `CCOC(=O)NC(=O)c1cn(CCSCCOC(=O)NCCCCCCNC(=O)OCCSCCn2cc(C(=O)NC(=O)OCC)c(=O)n(C)c2=O)c(=O)n(C)c1=O`, the TGI in the experiment with 786-0 renal is 79.8 µM; in the experiment with LOX IMVI melanoma, more than 100 µM; with NCI-H460 lung, more than 100 µM; with SF-268 CNS it was more than 100 µM; in the experiment with SF-295 CNS it was more than 100 µM; with SN12C renal it was more than 100 µM.
Take `CCCCCCOC(=O)CC1=C(C)/C(=C/c2[nH]c(-c3ccc[nH]3)cc2OC)N=C1C`: the GI50 was 0.0829 µM in the experiment with 786-0 renal; 0.178 µM in the experiment on IGROV1 ovarian; 0.0218 µM in the experiment on LOX IMVI melanoma; 0.0342 µM with M14 melanoma; 0.0961 µM with MCF7 breast; 0.355 µM in the experiment with NCI-H460 lung. Also, the GI50 with SF-268 CNS was 0.0818 µM; in the experiment with SF-295 CNS, 0.12 µM. The TGI worked out at 1.16 µM with 786-0 renal; 1.23 µM in the experiment with IGROV1 ovarian; 0.0565 µM with LOX IMVI melanoma; 0.328 µM in the experiment on M14 melanoma; 1.38 µM with MCF7 breast; 1.39 µM in the experiment on NCI-H460 lung. Further, the TGI in the experiment on SF-268 CNS came out at 2 µM; in the experiment on SF-295 CNS, 0.466 µM.
Take `Cn1cnc([N+](=O)[O-])c1Sc1n[nH]c(-c2ccc(Cl)cc2)n1`: the TGI with 786-0 renal was 51.5 µM; in the experiment on IGROV1 ovarian, 62.3 µM; in the experiment on K-562 leukemia, 51.3 µM; with LOX IMVI melanoma, 30.1 µM; with M14 melanoma, 33.5 µM; in the experiment on NCI-H460 lung, 53.6 µM. For the same compound, the figures for the TGI in the experiment on SF-268 CNS, in the experiment with SF-295 CNS and in the experiment with SN12C renal were 50.7 µM, 58.8 µM and 31.6 µM, respectively.
In the case of `N#CC(Sc1ccccc1)C(N)=O` (stereo unspecified), the TGI in the experiment with 786-0 renal, in the experiment on IGROV1 ovarian, in the experiment with K-562 leukemia, in the experiment on LOX IMVI melanoma, in the experiment on M14 melanoma and in the experiment with SF-268 CNS was more than 100 µM throughout. Also, the TGI with SF-295 CNS and in the experiment on SN12C renal was more than 100 µM throughout.
Consider `O=S1Nc2cccc(C(F)(F)F)c2S1` (stereo unspecified), for which the TGI with 786-0 renal is more than 100 µM; in the experiment with IGROV1 ovarian, more than 100 µM; in the experiment on K-562 leukemia it was more than 100 µM; in the experiment on LOX IMVI melanoma, 74.1 µM; with M14 melanoma, more than 100 µM; with NCI-H460 lung, more than 100 µM. Besides, the TGI in the experiment with SF-268 CNS, in the experiment with SF-295 CNS and with SN12C renal was more than 100 µM in each case.
On to `c1cc[c]([Ge]([O]c2cccc3cccnc23)([c]2ccccc2)[c]2ccccc2)cc1`, for which the GI50 in the experiment on 786-0 renal was 4.7 µM; in the experiment on IGROV1 ovarian, 3.1 µM; in the experiment on LOX IMVI melanoma it was 3.92 µM; in the experiment with M14 melanoma, 5.63 µM; with NCI-H460 lung, 3.37 µM; in the experiment with SF-268 CNS, 3.55 µM. Moreover, the figures for the GI50 in the experiment with SF-295 CNS and in the experiment on SN12C renal were 11.2 µM and 4.52 µM, respectively. The TGI in the experiment on 786-0 renal was found to be 15.7 µM; in the experiment with IGROV1 ovarian it was 10.3 µM; with LOX IMVI melanoma, 13.2 µM; with M14 melanoma, 17.5 µM; with NCI-H460 lung it was 12.2 µM; in the experiment on SF-268 CNS it was 15 µM. Further, the values for the TGI in the experiment on SF-295 CNS and in the experiment on SN12C renal were 23.8 µM and 16.5 µM, respectively.
Consider `O=C(O)c1cnc2c(ccc3[nH]cccc32)c1=O`, for which the TGI with 786-0 renal, in the experiment on IGROV1 ovarian, in the experiment with K-562 leukemia, in the experiment on LOX IMVI melanoma, with M14 melanoma and in the experiment with NCI-H460 lung was more than 100 µM throughout. Besides, the TGI with SF-268 CNS and in the experiment on SN12C renal was more than 100 µM each time.
As for `COc1ccc2cc3c4cc(OC)c(OC)cc4ccn3c2c1`, the TGI with 786-0 renal, in the experiment on IGROV1 ovarian, in the experiment with K-562 leukemia, in the experiment on LOX IMVI melanoma, in the experiment with NCI-H460 lung and in the experiment with SF-268 CNS was more than 100 µM each time. Moreover, the TGI in the experiment with SF-295 CNS and in the experiment on SN12C renal was more than 100 µM throughout.
